Reference: patent US20260225998A1, “NEW COMPOUNDS FOR TREATING STREPTOCOCCUS INFECTIONS” (AB2 THERAPEUTICS, S. L., priority 2023, published 2026)
≈ marks a conversion by molar mass, not a printed value.

Columns and labels:
Streptococcus pneumoniae = experiment: MIC test, microdilution method (CLSI); type: cell-based; conditions: ATCC strain of Streptococcus pneumoniae, 18-20 h at 37° C., MIC = concentration at which growth inhibited ≥80%, read-out: Activity (MIC) Spn
Procedure: (§1) Experimental Procedure: MIC Test. Microdilution Method
(§2) To evaluate the antimicrobial activity of the compounds, ATCC strains of Streptococcus pneumoniae and Streptococcus pyogenes were used. The minimal inhibitory concentrations (MICs) of the compounds were determined by microdilution assays, according to CLSI methodology.
(§3) 3 mg of compound were weighted in a 4 mL glass vials and were dissolved in properly volume of DMSO 100% (Reference: D2438-50, Sigma) to reach 12.8 mg/mL. (Cmax.).
(§4) In 96-well plates U-form (Reference: 650161, Greiner Bio-One): • Dispense 50 μL of the assayed compounds prepared in DMSO 100% at 12.8 mg/mL in each well in column 1. (8 different compounds per plate, row 1 to row 8) • Dispense 25 μL of DMSO 100% in all wells in columns 2 to 12. • With a multichannel pipette, aspire 25 μL of column 1 and dispense in column 2. Mix the contents in column 2 several times and aspire 25 uL. Dispense in column 3. • Repeat the process until column 10. In column 10, aspire 25 μL of the content and discard. • The final mother plate map is (all values in mg/mL)
(§5) In 96-well plates U-form: • With a multichannel pipette (in dispensing mode), aspire a properly volume (consider the number of copies of the mother plate do you want to perform) of all wells in mother plate, to dispense 1 μL/well in daughter plates.
(§6) Bacterial suspension will be prepared and normalized to 0.5 McFarland turbidity standard (approximately 10^8 CFU/mL) using a physiological saline solution (sodium chloride 0,9%). Then, prepared a 1/1000 dilution (approximately 10^5 CFU/mL) of the suspension in appropriate media (CLSI Standard) and inoculate 99 μL in each well in daughter plates (only columns 1 to 11) using a multidrop™ Combi Reagent Dispenser. In column 12, only 99 μL of media will be dispense as a sterility control.
(§7) The final plate map is (all values in μg/mL):
(§8) Plates will be incubated 18-20 h at 37° C. MIC values will be considered as the concentration of compounds at which the growth will be inhibited=>≥80%, compared to growth control.

Streptococcus pyogenes = experiment: MIC test, microdilution method (CLSI); type: cell-based; conditions: ATCC strain of Streptococcus pyogenes, 18-20 h at 37° C., MIC = concentration at which growth inhibited ≥80%, read-out: Activity (MIC) Spy
Procedure: as §1, §2, §3, §4, §5, §6, §7, §8

Compound | MIC (Streptococcus pneumoniae) | MIC (Streptococcus pyogenes)
CC(C)C[C@H](Oc1ccc(C(=O)NC[C@H](O)C(N)=O)cc1)c1ccc(-c2ccc(C(F)(F)F)cc2)cc1 [Example 5, N-((S)-3-amino-2-hydroxy-3-oxopropyl)-4-((S)-3-methyl-1-(4′-(trifluoromethyl)-[1,1′-bipheny]-4-yl)butoxy)benzamide] | > 128 µg/mL | > 128 µg/mL
NC(=O)[C@@H](O)CNC(=O)c1ccc(O[C@@H](CC2CCCCC2)c2ccc(-c3ccc(F)cc3)cc2)cc1 [Example 1, N-((S)-3-Amino-2-hydroxy-3-oxopropyl)-4-((S)-2-cyclohexyl-1-(4′-fluoro-[1,1′-biphenyl]-4-yl)ethoxy)benzamide] | 4 µg/mL (≈ 7.93 µM) | 4 µg/mL (≈ 7.93 µM)
CNC(=O)[C@@H](O)CNC(=O)c1ccc(O[C@@H](CC2CCCCC2)c2cccc(-c3ccc(C(F)(F)F)cc3)c2)cc1 [Example 8, 4-((S)-2-cyclohexyl-1-(4′-(trifluoromethyl)-[1,1′-biphenyl]-3-yl)ethoxy)-N-((S)-2-hydroxy-3-(methylamino)-3-oxopropyl)benzamide] | 4 µg/mL (≈ 7.03 µM) | 4 µg/mL (≈ 7.03 µM)
NC(=O)[C@@H](O)CNC(=O)c1ccc(O[C@@H](CC2CCCCC2)c2cccc(-c3ccc(C(F)(F)F)cc3)c2)cc1 [Example 2, N-((S)-3-Amino-2-hydroxy-3-oxopropyl)-4-((S)-2-cyclohexyl-1-(4′-(trifluoromethyl)-[1,1′-biphenyl]-3-yl)ethoxy)benzamide] | 2 µg/mL (≈ 3.61 µM) | 1 µg/mL (≈ 1.8 µM)

Further lines, results first:

MIC (Streptococcus pneumoniae) | MIC (Streptococcus pyogenes) | Compound
> 128 µg/mL | > 128 µg/mL | NC(=O)[C@@H](O)CNC(=O)c1ccc(O[C@@H](CC2CCOCC2)c2ccc(-c3ccc(C(F)(F)F)cc3)cc2)cc1 [Example 4, N-((S)-3-amino-2-hydroxy-3-oxopropyl)-4-((S)-2-(tetrahydro-2H-pyran-4-yl)-1-(4′-(trifluoromethyl)-[1,1′-biphenyl]-4-yl)ethoxy)benzamide]
4 µg/mL (≈ 7.99 µM) | 4 µg/mL (≈ 7.99 µM) | CC(C)[C@H](Oc1ccc(C(=O)NC[C@H](O)C(N)=O)cc1)c1ccc(-c2ccc(C(F)(F)F)cc2)cc1 [Example 6, N-((S)-3-amino-2-hydroxy-3-oxopropyl)-4-((S)-2-methyl-1-(4′-(trifluoromethyl)-[1,1′-biphenyl]-4-yl)propoxy)benzamide]
